In patent publication US11293023B2, “Tunable endogenous protein degradation” (Dana-Farber Cancer Institute, Inc., priority 2015, dated 2022):

Key:
FKBP12WT = target: T1, FKBP12WT (Homo sapiens, UniProt P62942); test: Immunoblot of wild type FKBP12 in 293FT cells (selectivity control); format: cell-based; conditions: 293FT CRBN-WT or CRBN−/−, indicated concentrations, 4 hours
T1 construct: expressed in transfected cells; host or cells: 293FT cells (CRBN-WT or CRBN-/-)
Procedure: 293FT cells (CRBN-WT or CRBN−/−) expressing either HA-tagged FKBP12WT or FKBP* were treated with indicated concentrations of dFKBP7 for 4 hours.
Isogenic 293FT cells (CRBN-WT or CRBN−/−) expressing either FKBP12WT or FKBP* were treated with 100 nM of either dFKBP7 or dFKBP13 for 4 hours.
The dTAG is predicated on the selectivity of FKBP* specific ligands over endogenous, wild type FKBP. […] 293FT cells (CRBN-WT or CRBN−/−) expressing either HA-tagged FKBP12WT or FKBP* were treated with indicated concentrations of dFKBP7 for 4 hours.
Isogenic 293FT cells (CRBN-WT or CRBN−/−) were engineered to expressed either FKBP12WT or FKBP*. Cells were treated with 100 nM of either dFKBP7 or dFKBP13 for 4 hours before lysates were prepared for western immunoblot analysis.

[1] = test system: dTAG-KRAS alleles (WT, G12C, G12D, G12V, G13D, Q61L, Q61R); test: Immunoblot of dTAG-KRAS WT and mutant alleles in NIH3T3 cells; format: cell-based; conditions: 1 uM, 24 hours
Procedure: FIG. 16 is an immunoblot of NIH3T3 cells expressing KRAS alleles either WT or mutant forms of amino acid glycine 12 (G12C, G12D, and G12V) treated with 1 uM of dFKBP13 for 24 hours.
FIG. 17 is an immunoblot of NIH3T3 cells expressing either WT or mutant KRAS alleles (G13D, Q61L, and Q61R) treated with 1 uM of dFKBP13 for 24 hours.
(§1) The dFKBP13 heterobifunctional compound potently degrades dTAG-KRAS mutant alleles. NIH3T3 cells were engineered to express KRAS alleles either WT or mutant forms of amino acid glycine 12 (G12C, G12D, and G12V). Western blotting of NIH3T3 cells expressing dTAG fused to the N-terminus of KRAS alleles were treated with 1 uM of dFKBP13 for 24 hours. Cells were harvested and immunoblotted to measure degradation of dTAG-KRAS and downstream surrogates of KRAS signaling (e.g. pMEK and pAKT).
as §1, with “express” for “express KRAS alleles”, “KRAS alleles (G13D, Q61L,” for “forms of amino acid glycine 12 (G12C, G12D,”, “Q61R).” for “G12V).”

T1 sequence (P62942 whole entry): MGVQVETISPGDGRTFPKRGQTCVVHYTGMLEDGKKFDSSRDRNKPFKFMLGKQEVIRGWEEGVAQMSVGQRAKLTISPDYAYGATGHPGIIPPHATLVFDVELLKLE

CC[C@H](C(=O)N1CCCC[C@H]1C(=O)O[C@H](CCc1ccc(OC)c(OC)c1)c1cccc(OCC(=O)NCCCOCCOCCOCCCNC(=O)COc2cccc3c2C(=O)N(C2CCC(=O)NC2=O)C3=O)c1)c1cc(OC)c(OC)c(OC)c1 (stereo partly drawn) [dFKBP7]
degradation of HA-tagged FKBP12WT (FKBP12WT): not FKBPWT

CC[C@H](C(=O)N1CCCC[C@H]1C(=O)O[C@H](CCc1ccc(OC)c(OC)c1)c1cccc(OCC(=O)NCCCCCCOc2cccc3c2C(=O)N(C2CCC(=O)NC2=O)C3=O)c1)c1cc(OC)c(OC)c(OC)c1 (stereo partly drawn) [dFKBP13]
degradation of dTAG-KRAS alleles ([1]; G12C, G12D, G12V): potent degradation of WT and mutant KRAS alleles
degradation of dTAG-KRAS alleles ([1]; G13D, Q61L, Q61R): potent degradation of WT and mutant KRAS alleles
